Source: PMC10555500, “Evaluation of the Antiproliferative Properties of CpRu Complexes Containing N-Methylated Triazaphosphaadamantane Derivatives” (Bioinorganic Chemistry and Applications, 2023)

Columns and labels:
[1] = test system: MCF-7 breast cancer cells; test: MTT cytotoxicity assay, MCF-7 cells; assay type: cell-based, human; settings: 24 h incubation, average of at least three experiments (±SD)
Protocol: (§1) The MDA-MB-231 and MCF-7 human breast cancer cells were purchased from ATCC. The MDA-MB-231 and MCF-7 cells were grown in Dulbecco's modified Eagles' medium (DMEM high glucose) (Capricorn Scientific) at 37°C in 5% CO2 supplemented with 10% fetal bovine serum (Capricorn Scientific). HDF cells were purchased from Merck and were grown in the fibroblast growth medium. All cells were adherent in monolayers and, upon confluence, were washed with phosphate buffer saline (PBS) and harvested by digestion with trypsin-EDTA 0.05% (v/v). The cells were suspended and transferred into new, sterile, culture flasks for maintenance or seeded in sterile test microplates for different assays. All cells were manipulated under aseptic conditions in a flow chamber.
The cells were adherent in monolayers and, upon confluence, were harvested by digestion with trypsin. The cytotoxicity of the complexes against the tumour cells was assessed using the colorimetric assay MTT […], which evaluates the metabolic activity of viable cells. This assay measures the conversion of yellow tetrazolium into purple formazan by an active mitochondrial dehydrogenase in living cells. For this purpose, the cells (10–20 × 10^3 in 200 μL of the medium) were seeded into 96-well plates and incubated in a 5% CO2 incubator at 37°C. The cells were settled for 24 h followed by the addition of a dilution series of the complexes in a medium (200 μL). The complexes were first solubilized in 100% DMSO, given a 10 mM stock solution, and then in a medium within the concentration range of 0.1–100 µM. […] The cellular viability was evaluated by measuring the absorbance at 570 nm by using a microplate spectrophotometer. […]
The cells were adherent in monolayers and, upon confluency, were harvested by digestion with trypsin. The cytotoxicity of the complexes against the tumour cells was assessed using the colorimetric assay MTT […], which evaluate the metabolic activity of viable cells. […]

[2] = biological target: human serum albumin (HSA) (Homo sapiens, UniProt P02768); test: Binding to human serum albumin by steady-state and time-resolved Trp214 fluorescence; settings: for Emission intensity of Trp214 relative to value in the absence of compound: 20 µM compound (1:4 HSA:compound), 24 h, λem 340 nm; for Type of quenching: HSA-Trp214 fluorescence; for Spectral shift of Trp214 emission: steady-state emission, 24 h incubation; for Effect on amplitude-weighted mean fluorescence lifetime of HSA-Trp214: time-resolved fluorescence, λem 350 nm
Protocol: (§2) The stock solutions of HSA were freshly prepared for each experiment by gently dissolving protein in PBS pH 7.4 (tablets from Fisher) for 1 hour to allow protein to completely hydrate. The concentration of the protein in the stock solutions was determined by spectrophotometry using the molar absorption coefficient at 280 nm ε280(HSA) = 36,850 M^−1·cm^−1 [38].
In each essay, all spectroscopic measurements were carried out on individually prepared samples to ensure the same preincubation time at (37.0 ± 0.1)°C, the same % of DMSO in the final samples, and the same exposure to excitation light and to avoid the need for dilution corrections. Moreover, for a direct titration protocol, a highly concentrated stock solution of the compounds in the buffer would be required, which would raise solubility issues. Dimethylsulfoxide (DMSO, from Fisher) was used to prepare concentrated stock solutions of each complex, followed by appropriate dilution to obtain the desired concentration. The DMSO content was kept at 2% (v/v) in PBS pH 7.4 in all samples. Dilutions were carried out immediately before sample preparation.
Fluorescence measurements were performed at 25.0 ± 0.1°C. The final protein concentration in the individually prepared samples (3.72 to 5 μM) was kept constant in each assay, and the complex concentration was varied to obtain desired HSA: Ru-complex molar ratios ranging from 1 : 0.25 to 1 : 10. A control sample containing the same amount of protein and final DMSO content and with no complex was also prepared for each experiment. Appropriate blank samples with no protein but with the same complex concentrations were prepared as well for background correction.
The steady-state fluorescence intensity was measured with excitation at 295 nm, and emission spectra were collected with bandwidths of 4 nm for both excitation and emission. For Stern–Volmer plots, the fluorescence intensity with emission at 340 nm was selected because it is near the maximum emission wavelength (so the sensitivity is close to maximum), but it is further to red in relation to the water Raman scattering peak. These values were corrected for the absorption and emission inner filter effects using the absorbance recorded for each sample at the excitation and emission wavelengths used for the steady-state quenching analysis. For time-resolved fluorescence measurements, the single-photon-counting technique was used with nanoLED N-280 (Horiba Jobin Yvon) as the pulsed excitation source (280 nm) and with emission collected at 350 nm (13 nm emission bandwidth), eliminating the contribution of the emission by tyrosine residues.
The experimental fluorescence intensity decays of HSA in buffer solution can be described by a sum of exponentials:(1) It=∑i=1npiexp−t/τi, where pi and τi are the pre-exponential factors and lifetime of component i, respectively. The amplitude or normalized pre-exponential of each lifetime component αi is pi/Σipi with Σiαi = 1. Fluorescence decays were analysed by an iterative deconvolution method using the TRFA Data Processor software (version 1.4; Minsk, Belarus), and the instrument response function was obtained using scattering by a colloidal suspension of silica (Ludox®, Sigma-Aldrich) diluted in water. Criteria for judging the quality of the fit were reduced χ^2 close to 1 and a random distribution of weighted residuals and residual autocorrelation.
To evaluate changes in the quantum yield by processes affecting the fluorescence lifetimes of HSA, the amplitude-weighted mean fluorescence lifetime ( τ¯ ) was calculated using the following equation:(2) τ¯=∑i=1nαiτi.
as §2, with “dissolving the” for “dissolving”, “allow the” for “allow”, “of” for “of the”, “M^−1 cm^−1.[8] […]” for “M^−1·cm^−1 [38].”

[3] = test system: normal human fibroblasts (HDF); test: MTT cytotoxicity assay, normal human dermal fibroblasts; assay type: cell-based; settings: for IC50: 24 h incubation, MTT, normal human fibroblasts; for Fold less cytotoxic for fibroblasts (HDF) than for MCF-7 cells: selectivity HDF vs MCF-7; for Fold less cytotoxic for fibroblasts (HDF) than for MDA-MB-231 cells: selectivity HDF vs MDA-MB-231
Protocol: as §1
(§3) The cells were adherent in monolayers and, upon confluence, were harvested by digestion with trypsin. The cytotoxicity of the complexes against the tumour cells was assessed using the colorimetric assay MTT […], which evaluates the metabolic activity of viable cells. This assay measures the conversion of yellow tetrazolium into purple formazan by an active mitochondrial dehydrogenase in living cells. For this purpose, the cells (10–20 × 10^3 in 200 μL of the medium) were seeded into 96-well plates and incubated in a 5% CO2 incubator at 37°C. The cells were settled for 24 h followed by the addition of a dilution series of the complexes in a medium (200 μL). The complexes were first solubilized in 100% DMSO, given a 10 mM stock solution, and then in a medium within the concentration range of 0.1–100 µM. […] After 24 h of incubation, the treatment solutions were removed by aspiration, and MTT solution (200 μL, 0.5 mg·mL^−1 in PBS) was added to each well. After 3 h at 37°C/5% CO2, the solution was removed, and the purple formazan crystals formed inside the cells were dissolved in DMSO (200 μL) by thorough shaking. The cellular viability was evaluated by measuring the absorbance at 570 nm by using a microplate spectrophotometer. The IC50 values were obtained by dose-response curves using the GraphPad Prism software (vs. 5).

[4] = test system: MDA-MB-231 breast cancer cells; test: MTT cytotoxicity assay, MDA-MB-231 cells; assay type: cell-based, human; settings: for IC50: 24 h incubation, MTT, average of at least three experiments (±SD)
Protocol: as §1, §3
The MDA-MB-231 and MCF-7 human breast cancer cells were purchased from ATCC. MDA-MB-231 and MCF-7 cells were grown in Dulbecco’s modified Eagles’s medium (DMEM high glucose) (Capricorn Scientific) at 37 °C in 5% CO2 supplemented with 10% fetal bovine serum (Capricorn Scientific). All cells were adherent in monolayers and, upon confluence, were washed with phosphate buffer saline (PBS) and harvested by digestion with Trypsin-EDTA 0.05% (v/v). The cells were suspended and transferred into new, sterile, culture flasks, for maintenance or seeded in sterile test microplates for different assays. All cells were manipulated under aseptic conditions in a flow chamber.
The cells were adherent in monolayers and, upon confluency, were harvested by digestion with trypsin. The cytotoxicity of the complexes against the tumour cells was assessed using the colorimetric assay MTT […], which evaluate the metabolic activity of viable cells. This assay measures the conversion of the yellow tetrazolium into purple formazan by an active mitochondrial dehydrogenase in living cells. For this purpose, cells (10-20 × 10^3 in 200 μL of medium) were seeded into 96-well plates and incubated in a 5% CO2 incubator at 37 °C. The cells were settled for 24 h followed by the addition of a dilution series of the complexes in medium (200 μL). The complexes were first solubilized in 100% DMSO, given a 10 mM stock solution, and then in medium within the concentration range of 0.1–100 µM. […] After 24 h of incubation, the treatment solutions were removed by aspiration, and MTT solution (200 μL, 0.5 mg·mL^-1 in PBS) was added to each well. After 3 h at 37 °C/5% CO2, the solution was removed, and the purple formazan crystals formed inside the cells were dissolved in DMSO (200 μL) by thorough shaking. […]

human serum albumin (HSA), sequence (P02768 25-609): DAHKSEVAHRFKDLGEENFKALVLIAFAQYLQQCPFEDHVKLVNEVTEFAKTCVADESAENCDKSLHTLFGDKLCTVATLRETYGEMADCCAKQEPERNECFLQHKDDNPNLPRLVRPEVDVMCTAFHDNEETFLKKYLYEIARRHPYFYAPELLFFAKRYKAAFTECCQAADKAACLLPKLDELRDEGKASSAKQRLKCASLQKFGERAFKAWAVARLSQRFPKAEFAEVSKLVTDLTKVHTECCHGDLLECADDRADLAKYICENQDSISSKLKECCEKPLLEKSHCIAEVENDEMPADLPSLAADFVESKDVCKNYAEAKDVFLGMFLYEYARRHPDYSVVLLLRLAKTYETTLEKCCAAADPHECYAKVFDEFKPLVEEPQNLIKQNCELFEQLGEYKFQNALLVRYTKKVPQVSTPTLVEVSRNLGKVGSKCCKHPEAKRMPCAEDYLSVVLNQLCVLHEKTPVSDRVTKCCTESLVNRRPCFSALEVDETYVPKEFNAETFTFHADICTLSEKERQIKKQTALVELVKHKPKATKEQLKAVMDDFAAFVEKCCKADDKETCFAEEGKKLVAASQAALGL

Row | SMILES | IC50 [1] [nM] | Emission intensity of Trp214 relative to value in the absence of compound [2] | Type of quenching [2] | Spectral shift of Trp214 emission [2] | Effect on amplitude-weighted mean fluorescence lifetime of HSA-Trp214 [2] | IC50 [3] [nM] | Fold less cytotoxic for fibroblasts (HDF) than for MCF-7 cells [3] | Fold less cytotoxic for fibroblasts (HDF) than for MDA-MB-231 cells [3] [fold] | IC50 [4] [nM] | Cytotoxicity (in words) ([4]; MDA-MB-231, MTT, 24 h) | IC50 ([4]; Homo sapiens, MDA-MB-231) [nM]
1 | CN1CN2CN(C)C[P]([Ru+2]([P](c3ccccc3)(c3ccccc3)c3ccccc3)[P](c3ccccc3)(c3ccccc3)c3ccccc3)(C1)C2.O=S(=O)([O-])C(F)(F)F.c1cc[cH-]c1 [Compound 10, [RuCp(dmoPTA)(PPh3)2](CF3SO3)] | 400 ± 40 | ~75% | Static | do not induce any spectral shift | does not affect | 1470 ± 400 | 2-3 fold | 1.5 | 840 ± 90 |  | 
2 | CN1CN2C[NH+](C)C[P]([Ru+2]([P](c3ccccc3)(c3ccccc3)c3ccccc3)[P](c3ccccc3)(c3ccccc3)c3ccccc3)(C1)C2.O=S(=O)([O-])C(F)(F)F.O=S(=O)([O-])C(F)(F)F.c1cc[cH-]c1 [Compound 9, [RuCp(HdmoPTA)(PPh3)2](CF3SO3)2] | 480 ± 70 | approximately 60% | Static | do not induce any spectral shift | does not affect | 1230 ± 320 | 2-3 fold | 1.5 | 860 ± 130 |  | 
3 | [Cl][Ru+]([P]12CN3CN(CN(C3)C1)C2)[P](c1ccccc1)(c1ccccc1)c1ccccc1.c1cc[cH-]c1 [Compound 5, [RuClCp(PPh3)(PTA)]] |  |  |  |  |  |  |  |  | 60000 ± 19000 | Moderate cytotoxicity | 
4 | C[N+]12CN3CP(C1)C[N+](C)(C3)C2 [Compound 3, N,N′-dimethyl-1,3,5-triaza-7-phosphaadamantane] |  |  |  |  |  |  |  |  |  |  | > 100000
5 | C1N2CN3CN1CP(C2)C3 [Compound 1, 1,3,5-triaza-7-phosphaadamantane] |  |  |  |  |  |  |  |  |  |  | > 100000
